PMC8453848, “Effect of GLPG1205, a GPR84 Modulator, on CYP2C9, CYP2C19, and CYP1A2 Enzymes: In Vitro and Phase 1 Studies” (Clinical Pharmacology in Drug Development, 2021)
Like-named read-outs stand apart in the source and are kept apart here.

How the values were obtained:
CYP2C19 = CYP2C19 (Homo sapiens, UniProt P33261); test: CYP2C19 inhibition, S-mephenytoin 4'-hydroxylase assay in human liver microsomes; assay type: in vitro ADME; design: from tissue; host or cells: in vivo, 14 healthy male subjects; settings: for IC50: estimated
Experimental: Inhibition of the biotransformation of CYP‐specific substrates by GLPG1205 was studied using human liver microsomes. Incubation was performed at 37°C with the following conditions: n = 3 for all assays; 0.1 M phosphate buffer (pH 7.4), the cofactor nicotinamide adenine dinucleotide phosphate (NADPH) incubated at 2 mM, the CYP‐specific substrate incubated at 1 nonsaturating concentration, and GLPG1205. Additional incubation was performed with (1) a 30‐minute preincubation step of GLPG1205 with microsomes before the addition of the cofactor NADPH and CYP substrate; and (2) a 30‐minute preincubation step of GLPG1205 with microsomes and the cofactor NADPH, before the addition of the CYP substrate. […] The CYP‐specific substrates were incubated per the above conditions at the following concentrations: tolbutamide, 200 μM, CYP2C9 substrate; S‐mephenytoin, 60 μM, CYP2C19 substrate; phenacetin, 40 μM, CYP1A2 substrate.
Further details of the assays used for each CYP substrate are reported in the Supplemental Methods. Metabolites of the CYP‐specific substrates (acetaminophen for CYP1A2, hydroxytolbutamide for CYP2C9, hydroxymephenytoin for CYP2C19) were quantified using LC‐MS/MS.
Enzymatic activity in the presence of GLPG1205 was expressed as a percentage of the control activity obtained with the vehicle only (ie, without GLPG1205 or reference inhibitor). Decreases in activity of less than 20% were not considered clinically relevant.
Protocol for CYP Inhibition of the biotransformation of CYP-specific substrates by GLPG1205 was studied using human liver microsomes.^7 Incubations were performed at 37°C with the following conditions: n = 3 for all assays; 0.1 M phosphate buffer pH 7.4; the cofactor β-nicotinamide adenine dinucleotide phosphate (NADPH) incubated at 2 mM; the CYP-specific substrate incubated at one non-saturating concentration; and GLPG1205. Additional incubations were performed with: 1) a 30-minute preincubation step of GLPG1205 with microsomes before addition of the cofactor NADPH and CYP substrate; and 2) a 30-minute preincubation step of GLPG1205 with microsomes and the cofactor NADPH, before addition of the CYP substrate.
The CYP-specific substrates were incubated at the following conditions: tolbutamide (200 µM; CYP2C9); S-mephenytoin (60 µM; CYP2C19); phenacetin (40 µM; CYP1A2).^8-10 Reference inhibitors (as detailed in the previous section) were incubated in parallel. […]
A two-fold dilution in D3-OH-mephenytoine at 1 µM in water with 0.1% formic acid was applied to the supernatants and then analysis was performed by LC-MS/MS with chromatographic separation. […] The quantification of the metabolite, hydroxymephenytoin, was performed in MRM mode using the 235.1 to 150.2 transition. […]

CYP3A4 = system: CYP3A4; design: method as in PMID 33960725, PMID 29780235; settings: cortisol:6β‐hydroxycortisol ratio in urine; cited from earlier work

Sequence of CYP2C19 (P33261 whole entry): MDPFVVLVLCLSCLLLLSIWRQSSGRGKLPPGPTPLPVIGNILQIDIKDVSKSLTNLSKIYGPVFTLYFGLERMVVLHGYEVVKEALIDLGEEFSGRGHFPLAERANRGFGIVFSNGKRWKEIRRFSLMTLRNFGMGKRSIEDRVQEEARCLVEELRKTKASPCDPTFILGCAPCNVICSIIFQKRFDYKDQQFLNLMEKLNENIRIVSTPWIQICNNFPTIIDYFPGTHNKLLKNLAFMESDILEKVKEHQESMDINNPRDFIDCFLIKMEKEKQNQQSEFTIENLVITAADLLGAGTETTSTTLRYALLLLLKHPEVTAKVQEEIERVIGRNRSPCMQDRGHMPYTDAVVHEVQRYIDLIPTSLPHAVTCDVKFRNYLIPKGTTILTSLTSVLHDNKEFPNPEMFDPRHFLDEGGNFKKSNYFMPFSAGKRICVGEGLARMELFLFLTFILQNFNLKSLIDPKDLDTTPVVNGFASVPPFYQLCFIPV

O=c1nc(OC[C@@H]2COCCO2)cc2n1CCc1cc(C#CC3CC3)ccc1-2 [GLPG1205, 9‐cyclopropylethynyl‐2‐[(S)‐1‐(1,4)dioxan‐2‐ylmethoxy]‐6,7‐dihydropyrimido[6,1‐a]isoquinolin‐4‐one]
inhibition of CYP2C19 in words (CYP2C19; GLPG1205 50‐100 μM): moderate and reversible
IC50 (CYP2C19; human liver microsomes, read-out: IC50 for inhibition of CYP2C19): ≥ 50 µM
IC50 (CYP2C19; equivalent of ≥50 μM, read-out: IC50 for inhibition of CYP2C19, equivalent): ≥ 49.9 µM
inhibition at 20 min (CYP2C19; human, liver microsomes, pH 7.4, probe S-mephenytoin 60 µM, GLPG1205 50‐100 μM without preincubation, S‐mephenytoin 60 μM): 44.2 to 49.3%
CYP3A4 induction (CYP3A4): did not induce CYP3A4
